Test results reported in patent publication US12324827B2, “Combination therapy for the treatment of migraines” (The University of Chicago, priority 2019, dated 2025).

Key:
[1] = system: trigeminocervical complex c-fos; experiment: Trigeminocervical c-fos immunostaining after recurrent CSD, nasal IGF-1 with or without intravenous anti-CGRP antibody (Example 5); format: in vivo, rat
Procedure: (§1) Migraine will be modeled using recurrent CSD (Grinberg et al., 2019; Won and Kraig 2019a,b; Won and Kraig, 2020). Briefly, the day before recurrent CSD, animals are anesthetized with inhalational isoflurane in oxygen (2-5%) and treated with intranasal IGF-1 (150 μg in 50 μl succinate buffer).
Anesthetized animals are then transferred to a standard stereotaxic head holder under 2-5% isoflurane inhalational anesthesia. Eyes are coated with Artificial Tears and head shaved, cleansed with Betadine, and 0.1 mL of 0.25% Bupivacaine is injected subcutaneously to either side of what will be a left of midline head incision made five minutes later. The underlying skull is scraped free of soft tissue and hemostasis achieved with bone wax. Two 1-2 mm craniotomies are drilled with a Dremel tool at +3 mm anterior to bregma and two mm lateral to the midline (for 0.5M KCl 10-30 nL pressure injections used to initiate CSD. A second craniotomy is placed six mm caudal to bregma and 4.5 mm lateral to the midline (for recording CSD. The surgery area is wiped with Betadine and incision closed with three wound clips. Animals are allowed to awaken and then returned to overnight standard Animal Facility Housing.
(§2) The next day (i.e., 20-24 hours later) animals are again be anesthetized as above with inhalational isoflurane and the left femoral vein cannulated for antibody infusion. Select groups of animals (see below) are treated with intravenous infusion either 1 mg/kg anti-CGRP (ab81887) or isotype IgG2a control in 0.5-0.6 ml normal saline. After infusions, the femoral incision is closed with wound clips.
Animals are stabilized for an hour under anesthesia (1.5% isoflurane in oxygen) after head sutures are removed, eyes coated with Artificial Tears and animals made ready for initiation and recording of CSD under deeper (5%) isoflurane in oxygen, which is then lowered back to 1.5% isoflurane in oxygen during CSD recordings. CSD is initiated as described above one to four hours after antibody infusion. All animals receive nine KCl injections. Then, isoflurane is raised to 5% and animals anesthetized with intraperitoneal ketamine and Xylazine followed quickly by euthanasia via intra-cardiac perfusion with 0.1 mL heparin (1,000 units/ml), then 250 ml of normal saline and finally 250 ml 4% paraformaldehyde in 0.2 M phosphate buffer. […]
2. […] All animals for nasal delivery of IGF-1 plus intravenous treatment (i.e., one ml saline or anti-CGRP antibody) followed by 90 minutes of evoked CSDs) were analyzed for trigeminal cervical complex c-fos immunostaining and trigeminal ganglion malondialdehyde immunostaining as previously described (Won and Kraig, 2020). […]

[2] = system: trigeminal ganglion malondialdehyde (MDA); experiment: Trigeminal ganglion V1 malondialdehyde immunostaining after recurrent CSD, nasal IGF-1 with or without intravenous anti-CGRP antibody (Example 5); format: in vivo, rat
Procedure: as §1, §2
Animals are stabilized for an hour under anesthesia (1.5% isoflurane in oxygen) after head sutures are removed, eyes coated with Artificial Tears and animals made ready for initiation and recording of CSD under deeper (5%) isoflurane in oxygen, which is then lowered back to 1.5% isoflurane in oxygen during CSD recordings. CSD is initiated as described above one to four hours after antibody infusion. All animals receive nine KCl injections. […]
2. […] All animals for nasal delivery of IGF-1 plus intravenous treatment (i.e., one ml saline or anti-CGRP antibody) followed by 90 minutes of evoked CSDs) were analyzed for trigeminal cervical complex c-fos immunostaining and trigeminal ganglion malondialdehyde immunostaining as previously described (Won and Kraig, 2020).
The inventors used a verified method of quantifying immunostaining log-ratios (experimental/sham) as a further means to reduce potential run-to-run variations in immunostaining for malondialdehyde, CGRP and c-fos positive cells (Won and Kraig, 2020). Images of malondialdehyde and CGRP were analyzed in blinded pairs so that they could be converted once decoded to ratios of experimental/sham image integrated optical intensity, a sensitive metric that not only accounts for the area but also the pixel intensity of related image fluorescence.

In the case of “IGF-1: human recombinant IGF-1 (#191-G1; R&D Systems), 150 μg in 50 μL sodium succinate buffer, delivered nose-to-brain”, the “reduction in trigeminocervical c-fos activation from recurrent CSD” value ([1]; counts from −4.5 and 6.0 mm caudal to the obex) is reported as 45%, the “ln ratio (IGF-1/sham) of trigeminocervical c-fos” value ([1]; nasal IGF-1 alone, original Won and Kraig 2020 data, n=5) is reported as −0.56±0.08 and the “ln ratio (IGF-1/sham) of trigeminocervical c-fos” value ([1]; nasal IGF-1 plus intravenous saline a day later, new data, n=3) is reported as −0.548±0.16. For the same substance, the “ln ratio of trigeminocervical c-fos, combined groups” value ([1]; nasal IGF-1 with or without subsequent intravenous saline, n=10) was −0.547±0.11, the “ln ratio of trigeminal ganglion MDA immunostaining” value ([2]; nasal IGF-1 alone, as previously reported (Won and Kraig, 2020), n=5) was −1.76±0.29 and the “ln ratio of trigeminal ganglion MDA immunostaining” value ([2]; nasal IGF-1 plus intravenous saline, n=3) was −1.75±0.56. For the same substance, the “ln ratio of trigeminal ganglion MDA immunostaining, combined groups” value ([2]; nasal IGF-1 with or without intravenous saline / nasal succinate, n=8) was −1.76±0.39.
